In one series the test system is Candida albicans. The conditions noted are these: for rabbits with no Candida albicans in culture of the vaginal mucosa: 72 hours post dosage. The source says:
Thirty-five female albino rabbits vaginally infected with Candida albicans were randomly assigned to seven dosage groups, 5 rabbits per group.

Another series has as its system Candida vaginitis. The settings on record: single dose oral; cited from earlier work.
The conditions of series [1]: human, in vivo, po; cited from earlier work.

The values below come from patent US20030130225A1, “Novel methods of treating local fungal and bacterial infections” (priority 2001, published 2003).

SMILES strings stand for the structures. Where two headings read alike, the source gives them in different places.

For the compound `OC(Cn1cncn1)(Cn1cncn1)c1ccc(F)cc1F` [Fluconazole, fluconazole], the results for the “rabbits with no Candida albicans in culture of the vaginal mucosa” value with Candida albicans (0.5 mg/kg oral fluconazole once), in the series with Candida albicans (1.0 mg/kg oral fluconazole once) and in the series with Candida albicans (2.0 mg/kg oral fluconazole once) were 40%, 100% and 60%, respectively. The “irritation to the vaginal epithelium” value with Candida albicans (rabbit, in vivo) is on record as “mild irritation”. Further, in the series on Candida vaginitis, the “average time for the onset of symptom relief” value is reported as “about 2.4 days”. Further, the “time to reach peak plasma concentration” value in series [1] was “about 3 hours”. Also, the “time to reach vaginal tissue and vaginal fluid” value in series [1] is 2 to 3 days.
